Series [1] concerns mouse glioma cells (G-26). Put plainly: Intracerebral G-26 glioma in C57BL/6 mice, survival. As to conditions: C57BL/6 mice with intracerebral G-26 gliomas, oral 250 mg/Kg daily; controls 27±2 days. The format is in vivo. As to the method: In vivo administration of Asc-S (250 mg/Kg) on intracerebral gliomas in C57BL/6 mice: The C57BL/6 mice were implanted with mouse glioma cells (G-26) by stereotaxic intracerebral implantation. […] (FIGS. 11A and B).
The body weight profiles of those mice during the experiments are shown in (FIG. 11B). The median survival observed in this study is statistically significant (P<0.05).
In vivo administration of Asc-S (250 mg/Kg) on intracerebral gliomas in C57BL/6 mice. The C57BL/6 mice were implanted with mouse glioma cells (G-26) by stereotaxic intracerebral implantation.
The body weight profiles of those mice during the experiments are shown in (FIG. 17B). The median survival observed in this study is statistically significant (P<0.05).

Series [2] deals with PC-1 cells. Put plainly: MTT cell growth and viability assay, PC-1. The format is cell-based, hamster. As to conditions: different concentrations of Asc-S, 24 hours. The procedure: (§1) Cell Growth and Vitality: The effect of Asc-S on PANC-1 and PC-1 cell growth and viability was evaluated by 3-(4,5-dimethylthiazol-2yl)-2,5-diphenyl-tetrazoliumbromide (MTT) (Sigma Chemical Co., St. Louis, Md.) assay and the details of the procedure are as described earlier (Naidu et al., 1993a) PANC-1 cells were seeded at 2.5×10^4 viable cells well in 0.1 ml MEM supplemented with 10% FBS or serum free MEM with 15 nM human recombinant IGF-1 in 96 multiwell tissue culture plates. The following day when the cells were nearly confluent, the medium was replaced with fresh medium and 50, 75, 100, 125, 150, 175 and 200 μM Asc-S were added and incubated in a CO2 incubator at 37° C. for 24 hours with respective untreated controls.
The effect of Asc-S on the proliferation of PC-1 and PANC-1 pancreatic tumor cells was studied using MTT assay. The expression of IGF1-R was analyzed by Western blot analysis, using polyclonal IGF1-R antibody (Upstate Biotech). Apoptosis was assessed by in situ hybridization using TUNEL reaction. […] This was associated with significant decrease in IGF1-R expression and increased apoptotic rate as compared to the control. Statistical analysis on the MTT assay was done using Student's T-test.

Series [3] has as its system Ras (p21). Put plainly: Ras (p21) expression by Western blot, PANC-1. As to conditions: 150 μM, 24 hours. The format is cell-based, human. The procedure: (§2) PANC-1 cells were cultured for 24 hours in MEM+10% FBS and treated with 150 μM Asc-S for 24 hours, Asc-S treated and untreated (control). PANC-1 cells were analyzed by Western immunoblotting as follows: Cell lysates of treated and non-treated PANC-1 cells were obtained. The lysates were sonicated, centrifuged and protein concentration was determined with Pierce BCA protein kit (Pierce Laboratories). A 20 μg of protein was loaded and resolved at 4% to 15% polyacrylamide gradient gel by sodium dodecyl sulfate-polyacrylamide gel electrophoresis (SDS-PAGE) and electroblotted onto a nitrocellulose membrane […]. The membrane was immunoblotted with mouse anti-human IGF1-R antibodies to cross-react the 85 kDa β-subunit of the IGF1-R (Pharmingen, San Diego, Calif.) followed by anti-mouse horseradish peroxidase conjugated secondary antibody (ECL, Amersham Corporation, Arlington Heights, Ill.). Antigen bound to nitrocellulose membrane was detected with the ECL system (Amersham Corporation, Arlington Heights, Ill.). P6 cells (3T3 fibroblast cells, transfected with a CVN plasmid constituitively expressing human IGF1-R) were used as the positive control.
Effects of Asc-S on Ras expression in PANC-1 cells: The activation of the IGF1-R induces a cascade of phosphorylations including that of GDP to GTP with activation of the Ras pathway. […]

Series [4] concerns IGF1-R. In words: IGF1-R expression by Western immunoblotting, PANC-1. It is filed as cell-based, human. The conditions noted are these: 150 μM, 24 hours, vs untreated control. As to the method: as §2
In additional experiments PANC-1 cells were cultured in MEM+10% FBS and treated with different concentrations of Asc-S (e.g. 50, 75, 100, 125, 150 and 200 μM) for 24 hours. […]

In series [5] the test system is PANC-1 cells. Put plainly: MTT cell growth and viability assay, PANC-1. The conditions noted are these: 50-175 μM Asc-S, 24 hours, MEM+10% FBS or serum free MEM+15 nM IGF-1. It is filed as cell-based, human. As to the method: PANC-1 Cell Culture: The human pancreatic ductal adenocarcinoma cell line PANC-1 was obtained from the American Type Culture Collection (Rockville, Md.). PANC-1 cells were cultured for 24 hours in Minimum Essential Medium (MEM) (Whitaker M A Bioproducts, Walkersville, Md.) supplemented with 10% fetal bovine serum (FBS) (Hyclone Laboratories, Logan, Utah) or serum free MEM+15 nM human recombinant IGF-1, penicillin (50 U/ml), streptomycin (50 μg/ml) and 1.0 mM L-glutamine.
as §1

For series [6] the following is noted: mice; cited from earlier work.
The subject of series [7] is T98G cells. In words: Apoptosis by in situ TUNEL assay, T98G. It is filed as cell-based, human. As to conditions: 100 μM, 24 hours. The procedure:
Apoptosis by in situ TUNNEL assay: This experiment was designed to test the hypothesis that down regulation of IGF1-R facilitates apoptosis in T98G cells. […] In addition, to test whether Asc-S treatment induces apoptosis in normal cells, rat astrocyte cells in primary culture were treated with 100 μM Asc-S for 24 hours. […] The increased apoptosis in the Asc-S treated T98G cells is due to down regulation of IGF1-R.
In FIG. 10, apoptosis was evaluated by in situ immunohistochemical detection and quantification at a single cell level.

As for `CCCCCCCCCCCCCCCCCC(=O)OC[C@H](O)[C@H]1OC(=O)C(O)=C1O` [Asc-S, Ascorbyl stearate], the median survival in series [1] was 43 ± 2 days. Moreover, the “PC-1 cell proliferation (MTT assay)” value in series [2] is reported as “dose dependent inhibition of PC-1 cell proliferation”. Moreover, the “Ras (p21) expression, PANC-1” value in series [3] is on record as “significant inhibition”. For the same compound, the “IGF1-R expression, PANC-1 cells (Western blotting)” value in series [4] is reported as “significantly lower number of receptors”. The “PANC-1 cell proliferation (MTT assay)” value in series [5] is recorded as “inhibited cell proliferation in a dose dependent manner”. For the same compound, in series [6], the LD50 was 25000 mg/kg. Also, in series [7], the “apoptosis (in situ TUNEL), T98G cells” value was “significant increase in apoptosis”.

Source of the values: patent US6638974B1, “Ascorbyl esters for the treatment of cancer” (University of South Florida, priority 1999, dated 2003).
